In patent US5510368A, “N-benzyl-3-indoleacetic acids as antiinflammatory drugs” (priority 1995, dated 1996):
Counter-ions that a name gives are not always drawn.

Columns and labels:
[1] = system: Rat paw edema; assay: Rat Paw Edema Assay (carrageenan); type: in vivo, Male Sprague-Dawley rats; conditions: po, 1 h before subplantar carrageenan (500 μg per paw); paw volume at 3 h
Procedure: Male Sprague-Dawley rats (150-200 g) were fasted overnight and were given po either vehicle (1% methocel or 5% Tween 80) or a test compound. One hour later, a line was drawn using a permanent marker at the level above the ankle in one hind paw to define the area of the paw to be monitored. The paw volume (VO) was measured using a plethysmometer (Ugo-B asile, Italy) based on the principle of water displacement. The animals were then injected subplantarly with 50 μl of 1% carrageenan solution in saline (FMC Corp, Maine) into the paw using an insulin syringe with a 25-gauge needle (i.e. 500 μg carrageenan per paw). Three hours later, the paw is volume (V3) was measured and the increases in paw volume (V3 -VO) were calculated. The animals were sacrificed by CO2 aphyxiation and the absence or presence of stomach lesions scored. Data were compared with the vehicle-control values and percent inhibition calculated. […] All treatment groups were coded to eliminate observer bias.

[2] = biological target: cyclooxygenase-1 (Homo sapiens, UniProt P23219); assay: Inhibition of cyclooxygenase activity, whole cell cyclooxygenase assay (COX-1, U-937 cells, PGE2 by radioimmunoassay); type: cell-based; conditions: human U-937 cells; PGE2 synthesis; 10 μM arachidonic acid
Chain of cyclooxygenase-1 (P23219 24-599): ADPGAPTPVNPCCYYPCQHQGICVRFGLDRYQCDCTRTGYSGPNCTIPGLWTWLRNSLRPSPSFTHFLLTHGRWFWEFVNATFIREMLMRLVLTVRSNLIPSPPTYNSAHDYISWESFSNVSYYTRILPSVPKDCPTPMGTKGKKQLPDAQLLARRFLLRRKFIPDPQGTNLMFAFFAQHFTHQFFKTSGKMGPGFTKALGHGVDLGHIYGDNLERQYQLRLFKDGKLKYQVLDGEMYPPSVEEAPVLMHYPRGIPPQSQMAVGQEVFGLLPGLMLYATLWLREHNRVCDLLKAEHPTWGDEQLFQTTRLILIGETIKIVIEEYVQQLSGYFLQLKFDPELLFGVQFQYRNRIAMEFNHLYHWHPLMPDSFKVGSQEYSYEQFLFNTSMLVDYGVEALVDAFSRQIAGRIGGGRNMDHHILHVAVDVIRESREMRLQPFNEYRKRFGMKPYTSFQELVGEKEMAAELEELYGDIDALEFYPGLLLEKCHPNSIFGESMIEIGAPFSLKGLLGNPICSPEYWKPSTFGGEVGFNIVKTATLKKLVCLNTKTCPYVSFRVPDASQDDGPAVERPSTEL

[3] = biological target: T1, cyclooxygenase-2 (Homo sapiens, UniProt P35354); assay: cell-based; conditions: human osteosarcoma 143 cells; PGE2 synthesis; 10 μM arachidonic acid; read-out: COX-2 (IC50)
T1 sequence (P35354 18-604): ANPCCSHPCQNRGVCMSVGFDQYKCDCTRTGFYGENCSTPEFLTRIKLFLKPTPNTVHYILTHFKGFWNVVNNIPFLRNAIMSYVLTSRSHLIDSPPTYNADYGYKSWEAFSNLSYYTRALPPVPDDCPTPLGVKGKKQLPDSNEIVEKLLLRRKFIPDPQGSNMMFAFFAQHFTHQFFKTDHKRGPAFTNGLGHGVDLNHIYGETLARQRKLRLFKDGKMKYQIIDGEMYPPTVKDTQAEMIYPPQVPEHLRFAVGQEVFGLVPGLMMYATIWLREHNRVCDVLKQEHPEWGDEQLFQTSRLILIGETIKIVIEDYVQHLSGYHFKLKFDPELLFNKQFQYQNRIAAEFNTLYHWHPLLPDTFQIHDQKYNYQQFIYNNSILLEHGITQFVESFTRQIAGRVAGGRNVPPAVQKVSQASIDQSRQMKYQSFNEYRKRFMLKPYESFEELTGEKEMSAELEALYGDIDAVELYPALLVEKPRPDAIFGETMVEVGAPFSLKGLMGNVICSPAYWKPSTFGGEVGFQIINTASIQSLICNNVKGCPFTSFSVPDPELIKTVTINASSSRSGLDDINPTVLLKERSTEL
Procedure: Compounds were tested as inhibitors of cyclooxygenase activity in whole cell cyclooxygenase assays. Both of these assays measured prostaglandin E2 synthesis in response to arachidonic acid, using a radioimmunoassay. Cells used for these assays were human osteosarcoma 143 cells (which specifically express cyclooxygenase-2) and human U-937 cells (which specifically express cyclooxygenase-1 ). In these assays, 100% activity is defined as the difference between prostaglandin E2 synthesis in the absence and presence of arachidonate.
For cyclooxygenase assays, osteosarcoma cells are cultured in 1 mL of media in 24-well multidishes (Nunclon) until confluent (1-2×10^5 cells/well). U-937 cells are grown in spinner flasks and resuspended to a final density of 1.5×10^6 cells/mL in 24-well multidishes (Nunclon). Following washing and resuspension of osteosarcoma and U-937 cells in 1 mL of Hanks balanced salts solution (HBSS), 2 μL of a DMSO solution of test compound or DMSO vehicle is added, and samples gently mixed. All assays are performed in triplicate. Samples and then incubated for 5 or 15 minutes at 37° C., prior to the addition of arachidonic acid. Arachidonic acid (peroxide-free, Cayman Chemical) is prepared as a 10mM stock solution in ethanol and further diluted 10-fold in HBSS. An aliquot of 10 μL of this diluted solution is added to the cells to give a final arachidonic acid concentration of 10 μM. Control samples are incubated with ethanol vehicle instead of arachidonic acid. Samples are again gently mixed and incubated for a further 10 min. at 37° C. For osteosarcoma cells, reactions are then stopped by the addition of 100 μL of 1 N HCl with mixing and by the rapid removal of the solution from cell monolayers. For U-937 cells, reactions are stopped by the addition of 100 μL of 1N HCl, with mixing. Samples are then neutralized by the addition of 100 μL of 1N NaOH and PGE2 levels measured by radioimmunoassay.
In the assay, inhibition is determined by measuring the amount of prostaglandin E2 (PGE2) synthesized in the presence of arachidonic acid, cyclooxygenase-1 or cyclooxygenase-2 and a putative inhibitor. The IC50 values represent the concentration of putative inhibitor required to return PGE2 synthesis to 50% of that obtained as compared to the uninhibited control.

Cc1c(C(C)C(=O)[O-])c2cc(Br)ccc2n1Cc1ccc(Br)cc1.[Na+] (racemic)
Rat paw edema (ED30) [1]: 0.26 mg/kg

COc1ccc2c(c1)c(C(C)C(=O)O)c(C)n2Cc1ccc(Cl)cc1 (stereo not drawn) [MK-555, α-(1-p-chlorobenzyl-2-methyl-5-methoxy-3-indolyl)propionic acid, reference compound]
IC50 [2]: 10000 nM | Rat paw edema (ED30) [1]: 3 mg/kg | IC50 [3]: 10 nM

Cc1c([C@H](C)C(=O)O)c2cc(Br)ccc2n1Cc1ccc(Br)cc1 [Example 2, sodium salt]
IC50 [2]: 1100 nM | Rat paw edema (ED30) [1]: 0.28 mg/kg | IC50 [3]: 13 nM

Cc1c(C(C)C(=O)[O-])c2cc(Br)ccc2n1Cc1ccc(Br)cc1.[Na+] (racemic) [sodium salt]
IC50 [2]: 10000 nM | IC50 [3]: 1.9 nM

Cc1c([C@@H](C)C(=O)O)c2cc(Br)ccc2n1Cc1ccc(Br)cc1 [Example 3, (R)-(-)-2-(5-Bromo-1-(4-bromobenzyl)-2-methyl-1H-indol-3-yl)propionic acid, sodium salt]
IC50 [2]: 32000 nM | Rat paw edema (ED30) [1]: 0.57 mg/kg | IC50 [3]: 1 nM
